Experimental data as given in ChEMBL document CHEMBL4177700, “Scutellarin inhibits Hela cell growth and glycolysis by inhibiting the activity of pyruvate kinase M2” (Bioorg Med Chem Lett, 2017).
Calls of active or inactive are those of the source. The calls are words filed in the database; no cut-off is given here.

How the values were obtained:
[1] = Stability in culture medium at 200 uM after 24 hrs by HPLC analysis (reference value: 100%); type: physicochemical; settings: read-out: Stability
[2] = system: HeLa; test: Cell cycle arrest in human HeLa cells assessed as accumulation at G2 phase at 400 uM after 48 hrs by […]propidium iodide staining based flow cytometry (reference value: 7.91%); type: functional
[3] = target: T1, Pyruvate kinase PKM (Homo sapiens, UniProt P14618); test: Binding affinity to PKM2 in human HeLa cell lysates at 200 uM after 6 hrs by silver staining based LC-MS/MS pull down analysis
Target sequence in this assay (P14618 2-531 limits assumed): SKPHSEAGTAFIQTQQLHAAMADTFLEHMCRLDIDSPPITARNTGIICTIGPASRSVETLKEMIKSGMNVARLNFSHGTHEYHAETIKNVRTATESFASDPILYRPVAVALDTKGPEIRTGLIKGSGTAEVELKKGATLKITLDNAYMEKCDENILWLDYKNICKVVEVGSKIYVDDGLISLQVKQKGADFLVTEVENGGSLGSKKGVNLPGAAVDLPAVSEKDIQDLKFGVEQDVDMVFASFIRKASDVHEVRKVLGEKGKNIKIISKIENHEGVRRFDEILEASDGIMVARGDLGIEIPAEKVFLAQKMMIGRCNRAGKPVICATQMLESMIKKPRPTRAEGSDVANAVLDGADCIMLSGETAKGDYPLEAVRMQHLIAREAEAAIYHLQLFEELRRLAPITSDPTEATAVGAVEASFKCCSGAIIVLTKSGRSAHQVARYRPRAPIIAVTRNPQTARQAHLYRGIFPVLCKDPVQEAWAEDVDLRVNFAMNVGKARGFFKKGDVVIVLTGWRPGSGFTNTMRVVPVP

[4] = target: T1, Pyruvate kinase PKM; test: Binding affinity to PKM2 in human A549 cells at 100 uM after 6 hrs by co-immunoprecipitation based Western blot analysis; type: cell-based
Target sequence in this assay (P14618 2-531 limits assumed): as above

[5] = Stability in culture medium at 200 uM after 6 hrs by HPLC analysis (reference value: 100%); type: physicochemical; settings: read-out: Stability
[6] = system: HeLa; test: Cell cycle arrest in human HeLa cells assessed as accumulation at G2 phase at 200 uM after 48 hrs by […]propidium iodide staining based flow cytometry (reference value: 7.91%); type: functional
[7] = system: HeLa; test: Induction of apoptosis in human HeLa cells at 200 to 400 uM after 48 hrs by Annexin V/propidium iodide staining based flow cytometry; type: functional, cell-based
[8] = system: HeLa; test: Cell cycle arrest in human HeLa cells assessed as accumulation at G1 phase at 400 uM after 48 hrs by […]propidium iodide staining based flow cytometry (reference value: 66.69%); type: functional
[9] = target: T1, Pyruvate kinase PKM; test: Binding affinity to PKM2 in human HeLa cells at 100 uM after 6 hrs in presence of biotin by Western blot analysis; type: cell-based
Target sequence in this assay (P14618 2-531 limits assumed): as above

[10] = Stability in culture medium at 200 uM after 3 hrs by HPLC analysis (reference value: 100%); type: physicochemical; settings: read-out: Stability
[11] = Stability in human HeLa cells at 200 uM after 24 hrs by HPLC analysis (reference value: 100%); type: ADME, cell-based; settings: read-out: Stability
[12] = target: T1, Pyruvate kinase PKM; test: Binding affinity to PKM2 in human HeLa cells at 100 uM after 6 hrs by co-immunoprecipitation based Western blot analysis; type: cell-based
Target sequence in this assay (P14618 2-531 limits assumed): as above

[13] = Stability in culture medium at 200 uM after 12 hrs by HPLC analysis (reference value: 100%); type: physicochemical; settings: read-out: Stability
[14] = system: HeLa; test: Cell cycle arrest in human HeLa cells assessed as accumulation at G1 phase at 200 uM after 48 hrs by […]propidium iodide staining based flow cytometry (reference value: 66.69%); type: functional
[15] = system: HeLa; test: Antiproliferative activity against human HeLa cells at 50 to 400 uM after 48 hrs by MTS assay; type: functional, cell-based
[16] = target: T1, Pyruvate kinase PKM; test: Binding affinity to PKM2 in human MCF7 cells at 100 uM after 6 hrs by co-immunoprecipitation based Western blot analysis; type: cell-based
Target sequence in this assay (P14618 2-531 limits assumed): as above

[17] = Stability in human HeLa cells at 200 uM after 12 hrs by HPLC analysis (reference value: 100%); type: ADME, cell-based; settings: read-out: Stability
[18] = system: HeLa; test: Cell cycle arrest in human HeLa cells assessed as accumulation at S phase at 400 uM after 48 hrs by […]propidium iodide staining based flow cytometry (reference value: 25.41%); type: functional
[19] = Stability in human HeLa cells at 200 uM after 6 hrs by HPLC analysis (reference value: 100%); type: ADME, cell-based; settings: read-out: Stability
[20] = Stability in human HeLa cells at 200 uM after 3 hrs by HPLC analysis (reference value: 100%); type: ADME, cell-based; settings: read-out: Stability
[21] = system: HeLa; test: Cell cycle arrest in human HeLa cells assessed as accumulation at S phase at 200 uM after 48 hrs by […]propidium iodide staining based flow cytometry (reference value: 25.41%); type: functional
[22] = target: T1, Pyruvate kinase PKM; test: Inhibition of recombinant human N-terminal His6/SUMO-tagged PKM2 expressed in Escherichia coli BL21 using PEP as substrate incubated for 30 mins in presence of ADP by spectrophotometric based LDH enzyme coupled assay
Target sequence in this assay (P14618 whole entry): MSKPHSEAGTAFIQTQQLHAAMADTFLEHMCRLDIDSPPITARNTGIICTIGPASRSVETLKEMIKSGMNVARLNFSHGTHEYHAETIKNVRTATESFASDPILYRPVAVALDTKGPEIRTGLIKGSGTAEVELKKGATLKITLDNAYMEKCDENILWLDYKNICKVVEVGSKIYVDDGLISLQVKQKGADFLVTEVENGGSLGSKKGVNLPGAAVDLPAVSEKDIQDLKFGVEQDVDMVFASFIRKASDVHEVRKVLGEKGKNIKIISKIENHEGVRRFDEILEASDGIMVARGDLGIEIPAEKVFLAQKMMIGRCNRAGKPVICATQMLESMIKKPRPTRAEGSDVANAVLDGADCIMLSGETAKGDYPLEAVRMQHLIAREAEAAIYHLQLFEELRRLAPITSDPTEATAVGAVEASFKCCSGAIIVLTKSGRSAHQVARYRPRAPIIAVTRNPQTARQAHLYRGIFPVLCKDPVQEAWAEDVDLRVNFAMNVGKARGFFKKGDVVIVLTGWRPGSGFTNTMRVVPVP

[23] = organism: Homo sapiens; test: Selectivity ratio of IC50 for recombinant human N-terminal His6/SUMO-tagged PKM1 expressed in Escherichia coli BL21 to IC50 for recombinant human N-terminal His6/SUMO-tagged PKM2 expressed in Escherichia coli BL21
[24] = target: T1, Pyruvate kinase PKM; test: Inhibition of recombinant human N-terminal His6/SUMO-tagged PKM1 expressed in Escherichia coli BL21 using PEP as substrate incubated for 30 mins in presence of ADP by spectrophotometric based LDH enzyme coupled assay
Target sequence in this assay (P14618 whole entry): as above

[25] = target: T1, Pyruvate kinase PKM; test: Inhibition of PKM2 in human HeLa cells assessed as reduction in cellular glycolytic rate after 6 hrs; type: cell-based
Target sequence in this assay (P14618 2-531 limits assumed): as the sequence (P14618 2-531 limits assumed) above

[26] = system: HeLa; test: Induction of apoptosis in human HeLa cells assessed as increase in cleaved caspase 3 expression level at 100 to 400 uM by Western blot analysis; type: functional, cell-based
[27] = system: HeLa; test: Activation of MEK/ERK/PIN1 pathway in human HeLa cells assessed as increase in PIN1 expression at 100 uM after 2 to 8 hrs by Western blot analysis; type: cell-based
[28] = system: HeLa; test: Activation of MEK/ERK/PIN1 pathway in human HeLa cells assessed as increase in MEK protein expression at 100 uM after 2 to 8 hrs by Western blot analysis; type: cell-based
[29] = system: HeLa; test: Down regulation of cyclin B expression level in human HeLa cells at 200 to 400 uM by Western blot analysis; type: functional, cell-based
[30] = system: HeLa; test: Effect on Glut1 expression level in human HeLa cells at 100 to 400 uM after 6 hrs by Western blot analysis; type: functional, cell-based
[31] = system: HeLa; test: Induction of apoptosis in human HeLa cells assessed as increase in Bax/Bcl-2 expression level at 100 to 400 uM by Western blot analysis; type: functional, cell-based
[32] = system: HeLa; test: Activation of MEK/ERK/PIN1 pathway in human HeLa cells assessed as increase in phosphorylated ERK1/2 expression at 100 uM after 2 to 8 hrs by Western blot analysis; type: cell-based
[33] = target: L-lactate dehydrogenase (Homo sapiens, UniProt V9HWB9); test: Inhibition of LDH (unknown origin) assessed as reduction in NADH oxidation at 200 uM after 30 mins; settings: 0.5 h
[34] = system: HeLa; test: Down regulation of CDK1 expression level in human HeLa cells at 200 to 400 uM by Western blot analysis; type: functional, cell-based

For O=C(CCCC[C@@H]1SC[C@@H]2NC(=O)N[C@@H]21)NCCOCCOCCNC(=O)COc1ccc(-c2cc(=O)c3c(O)c(O)c(O)cc3o2)cc1, the remaining at 24 h, 200 µM [1] was 52%, the Activity [2] was 15.52% and the Activity [3] was “Active”. For the same compound, the Activity [4] was “Active”, the remaining at 6 h, 200 µM [5] was 87% and the Activity [6] was 11.51%. For the same compound, the Activity [7] was “Active”, the Activity [8] was 47.56% and the Activity [9] was “inactive”. For the same compound, the remaining at 3 h, 200 µM [10] was 89%, the remaining at 24 h, 200 µM [11] was 29% and the Activity [12] was “Active”. For the same compound, the remaining at 12 h, 200 µM [13] was 54%, the Activity [14] was 63.05% and the Activity [15] was “Active”. For the same compound, the Activity [16] was “Active”, the remaining at 12 h, 200 µM [17] was 36% and the Activity [18] was 36.92%. The remaining at 6 h, 200 µM [19] was 93%, the remaining at 3 h, 200 µM [20] was 98% and the Activity [21] was 25.44%.

Cc1ccc(C)n1-c1ccc(O)c(C(=O)O)c1 showed an IC50 [22] of 12.5 µM, a Ratio IC50 [23] of 8 and an IC50 [24] of 100 µM.

Work on CC(C)=CC[C@@H](O)C1=CC(=O)c2c(O)ccc(O)c2C1=O [SHIKONIN] yielded an IC50 [22] of 0.5 µM, a Ratio IC50 [23] of 20 and an IC50 [24] of 10 µM.

For O=C1N[C@H]2[C@H](CS[C@H]2CCCCC(=O)Oc2ccc(-c3cc(=O)c4c(O)c(O)c(O)cc4o3)cc2)N1, the remaining at 24 h, 200 µM [1] was 49%, the Activity [3] was “Active” and the remaining at 6 h, 200 µM [5] was 97%. For the same compound, the remaining at 3 h, 200 µM [10] was 98%, the remaining at 24 h, 200 µM [11] was 37% and the remaining at 12 h, 200 µM [13] was 50%. The Activity [15] was “Active”, the remaining at 12 h, 200 µM [17] was 37% and the remaining at 6 h, 200 µM [19] was 85%. It also gave a remaining at 3 h, 200 µM [20] of 99%.

In the case of O=C(O)[C@H]1O[C@@H](Oc2cc3oc(-c4ccc(O)cc4)cc(=O)c3c(O)c2O)[C@H](O)[C@@H](O)[C@@H]1O, the inhibition [25] is reported as “Dose-dependent effect”.

With NCCOCCOCCNC(=O)CCCC[C@@H]1SC[C@@H]2NC(=O)N[C@@H]21 the Activity [3] was “Active”.

For O=c1cc(-c2ccc(O)cc2)oc2cc(O)c(O)c(O)c12 [SCUTELLAREIN], the Activity [2] was 16.19%, the Activity [6] was 12.55% and the Activity [26] was “Active”. The Activity [7] was “Active”, the Activity [27] was “Active” and the Activity [28] was “Active”. The Activity [29] was “Active”, the Activity [8] was 51.91% and the IC50 [22] was 12.5 µM. For the same compound, the inhibition [25] was “Dose-dependent effect”, the Activity [30] was “inactive” and the Activity [31] was “Active”. For the same compound, the Ratio IC50 [23] was 8, the Activity [14] was 62.11% and the Activity [15] was “Active”. For the same compound, the IC50 [24] was 100 µM, the Activity [18] was 31.89% and the Activity [32] was “Active”. The “inhibition (INH)” value [33] was “Not Active”, the Activity [21] was 25.34% and the Activity [34] was “Active”.
